Test results as given in PubChem BioAssay (NCI).
“And” between values parts separate entries of the source, which are not always exact repeats. Identical values can stand only once.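 96-well plates; 48 h exposure; 5 concentrations. Endpoints by linear interpolation between flanking doses. Not reached: highest tested concentration assigned. GI50 = concentration required for 50% inhibition of growth. TGI is the concentration that stops growth completely.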

How the values were obtained:
Assay in all cases: NCI anticancer screen, dose series, 48 h
MALME-3M melanoma = system: MALME-3M melanoma
SF-539 CNS = system: SF-539 CNS
SK-MEL-28 melanoma = system: SK-MEL-28 melanoma
EKVX NSCLC = system: EKVX NSCLC
UO-31 renal = system: UO-31 renal
NCI-H522 lung = system: NCI-H522 lung
HL-60(TB) leukemia = system: HL-60(TB) leukemia
SR leukemia = system: SR leukemia
MCF7 breast = system: MCF7 breast
BT-549 breast = system: BT-549 breast

Row | SMILES | TGI (MALME-3M melanoma) [µM] | TGI (SF-539 CNS) [µM] | TGI (SK-MEL-28 melanoma) [µM] | TGI (EKVX NSCLC) [µM] | TGI (UO-31 renal) [µM] | TGI (NCI-H522 lung) | TGI (HL-60(TB) leukemia) | TGI (SR leukemia) [µM] | GI50 (MALME-3M melanoma) [µM] | GI50 (HL-60(TB) leukemia) [µM] | GI50 (MCF7 breast) [µM] | TGI (MCF7 breast) [µM] | GI50 (BT-549 breast) [µM] | TGI (BT-549 breast) [µM] | GI50 (SK-MEL-28 melanoma) [µM] | GI50 (UO-31 renal) [µM] | GI50 (EKVX NSCLC) [µM] | GI50 (SR leukemia) [µM] | GI50 (SF-539 CNS) [µM] | GI50 (NCI-H522 lung)
1 | O=C(O)[C@H](NS(=O)(=O)c1ccc([N+](=O)[O-])cc1)c1ccccc1 | > 100 | > 100 | > 100 | > 100 | > 100 | > 100 µM |  |  |  |  |  |  |  |  |  |  |  |  |  | 
2 | COc1cc(/C=C(\C#N)c2ccccc2)cc(OC)c1 | > 100 | > 100 | > 100 | > 100 | > 100 | > 100 µM | > 100 µM | > 100 |  |  |  |  |  |  |  |  |  |  |  | 
3 | CN(CCC#N)c1ccc(/C=C(\C#N)c2ccc(Br)cc2)cc1 | > 100 |  | > 100 |  | > 100 |  | > 100 µM |  | > 100 | 4.43 | 4.05 | > 100 | > 100 | > 100 | > 100 | > 100 |  |  |  | 
4 | O=C1CSC(/C(=N/Nc2ccccc2)c2nc3ccccc3[nH]2)=N1 | > 100 | 85.2 | 79 | > 100 | > 100 | > 100 µM | > 100 µM | 31.1 |  |  |  |  |  |  |  |  |  |  |  | 
5 | O=C(NCO)NCOCn1c(=O)n(CO)c(=O)n(CO)c1=O | > 74 | > 100 | 45.1 | > 100 | > 100 |  | 47.5 µM | 81.9 |  |  |  |  |  |  |  |  |  |  |  | 
6 | O=C1OC2CCCC[C@@H]2C2C[C@]34CCCCC3[C@@H](C(=O)O4)C12 (stereo partly drawn) | > 100 | > 100 | > 100 | > 100 | > 100 | > 100 µM |  |  |  |  |  |  |  |  |  |  |  |  |  | 
7 | O=C1CCCC[C@H]1[C@H]1CCC[C@@H]([C@H]2CCCCC2=O)C1=O | > 100 | > 100 | > 100 | > 100 | > 100 | > 100 µM | > 100 µM | > 100 |  |  |  |  |  |  |  |  |  |  |  | 
8 | O=C1CC2c3ccccc3CCC2c2ccccc21 (stereo not drawn) |  | 53.3 | > 100 | 15.3 | 50.8 | 46.7 µM | > 100 µM | > 100 |  |  |  | > 100 |  |  |  |  |  |  |  | 
9 | N#CC1CC2(C1)OCCS2 (stereo not drawn) |  | > 100 | > 100 | > 100 | > 100 | > 100 µM | > 100 µM | > 100 |  |  |  |  |  |  |  |  |  |  |  | 
10 | S=C1OC2CCCC[C@H]2O1 (stereo partly drawn) |  | > 100 | > 100 | > 100 | > 100 | > 100 µM | > 100 µM | > 100 |  |  |  |  |  |  |  |  |  |  |  | 
11 | CC(=O)C(=CN1CCN(C(=O)c2ccco2)C1=S)C(C)=O | 47.9 |  | 25.8 | 28.6 | 10.8 |  | > 100 µM | > 100 | 20.7 | 5.79 |  |  | 14 | 30.1 | 3.94 | 2.92 | 11.2 | 2.26 |  | 
12 | CCOC(=O)NC(=O)c1cn(CCCOC(=O)CCCCCCCCCCC(=O)OCCCn2cc(C(=O)NC(=O)OCC)c(=O)[nH]c2=O)c(=O)[nH]c1=O | > 100 | > 100 | > 100 | > 100 | > 100 |  | > 100 µM | > 100 |  |  |  |  |  |  |  |  |  |  |  | 
13 | O=C1NC2OC(C(O)CO)C(O)C2O1 (stereo not drawn) | > 100 |  | > 100 | > 100 | > 100 | > 100 µM | > 100 µM | > 100 |  |  |  |  |  |  |  |  |  |  |  | 
14 | C[C@H](O)C(=O)N1CCC(CCn2c(Sc3cc4c(cc3Br)OCO4)nc3c(N)ncnc32)CC1 | > 100 | > 100 | > 100 | > 100 | > 100 | > 52.2 µM | 14.5 µM |  | 0.807 | 0.409 | 0.368 | > 100 | 1.93 | > 100 | 1.49 | 2.05 | 4.11 |  | 1.73 | 0.791 µM
15 | O=C1[C@@H]2C(c3ccccc3F)=NO[C@@H]2C(=O)N1c1ccc(Cc2ccc(N3C(=O)[C@H]4C(c5ccccc5F)=NO[C@H]4C3=O)cc2)cc1 | > 100 | > 100 | > 100 | > 100 | > 100 | > 100 µM | 34.7 µM | > 100 |  |  |  |  |  |  |  |  |  |  |  | 
16 | Cc1ccc(-c2nc3ccc(Cl)cc3c(=O)n2N2C(=O)CSC2c2ccccc2Cl)cc1 (stereo not drawn) | > 100 | > 100 | > 100 | > 100 | > 100 |  |  | > 100 | 5.97 |  | 26.9 | > 100 | > 100 | > 100 | 20.6 | 3.66 | 4.15 | > 100 | > 100 | 
17 | N#Cc1cccnc1Cl | > 100 | > 100 | > 100 | > 100 | > 100 | > 100 µM | > 100 µM | > 100 |  |  |  |  |  |  |  |  |  |  |  | 
18 | O=C1CC2CCCC23CC2(CCN13)OCCO2 (stereo not drawn) | > 100 | > 100 | > 100 | > 100 | > 100 | > 100 µM | > 100 µM | > 100 |  |  |  |  |  |  |  |  |  |  |  | 
19 | COc1cc2[nH]c(C(=O)c3cc(OC)c(OC)c(OC)c3)c(N)c2cc1C#CC1CC1 |  | 4.77 | > 100 |  | > 100 |  | 22 µM | > 100 |  | 3.36 | 1.85 | > 100 |  |  | 7.52 | 2.6 |  | 0.976 | 0.815 | 
20 | NC(=O)NCc1c(C(N)=O)ncn1Cc1ccccc1 |  | > 100 | > 100 | > 100 |  |  | > 100 µM |  |  |  |  |  |  |  |  |  |  |  |  | 
21 | Cn1c2ccccc2c(=O)c2ccc(Cl)cc21 | > 10 | > 10 | > 10 | > 10 |  |  | > 10 µM | > 10 |  |  |  | > 10 |  |  |  |  |  |  |  | 
22 | CCCSc1nc(COC(=O)NC)c(COC(=O)NC)n1C | > 100 | > 100 | > 100 | > 100 | > 100 | 45.1 µM and > 100 µM | 89.6 µM and > 100 µM | > 100 |  |  |  | > 100 |  |  |  |  |  |  |  | 22.1 µM and 55.5 µM
23 | O=c1c2cc(Br)cc(Br)c2nc(CCCl)n1CCO | > 100 | > 100 | > 100 | > 100 | > 100 | > 100 µM | > 100 µM |  |  |  |  |  |  |  |  |  |  |  |  | 
